Here are results for two compounds from US20230085307A1, “PYRIDAZINONE COMPOUND AND HERBICIDE” (NISSAN CHEMICAL CORPORATION, priority 2019, published 2023).

Structures are written as SMILES.

Experiment [1] deals with windgrass. As to the kind of experiment: Test Example 5: herbicidal effect by foliage application, plastic box (Table 20, symbol L). The experiment is classed as in vivo, windgrass (Apera spica-venti). To be noted: foliage application, three weeks after application. An outline of the steps:
(§1)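 Post-emergence foliar test in sterilized diluvial soil. Compound applied as water-diluted emulsion at a predetermined rate to 14-day-old plants; evaluation at three weeks.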

In experiment [2] the test system is velvetleaf. As to the kind of experiment: Test Example 5: herbicidal effect by foliage application, plastic box (Table 20, symbol M). The experiment is classed as in vivo, velvetleaf (Abutilon theophrasti). To be noted: foliage application, three weeks after application. An outline of the steps:
as §1

The subject of experiment [3] is barnyard grass. As to the kind of experiment: Test Example 3: herbicidal effect by foliage application, Wagner pot (Table 18, symbol H). Format: in vivo, barnyard grass (Echinochloa crus-galli). In outline:
(§2)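 Plants were sown in alluvial soil held under 0.1–0.5 cm standing water and grown 14 days in a greenhouse at 25–30 °C. An emulsifiable formulation, water-diluted to the set dose, was then sprayed onto the foliage, and effects were scored three weeks later using previously defined criteria.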

The test system of a further experiment is wild oat. As to the kind of experiment: Test Example 5: herbicidal effect by foliage application, plastic box (Table 20, symbol I). Particulars: foliage application, three weeks after application. The experiment is classed as in vivo, wild oat (Avena fatua). In outline: as §1
Experiment [4] has as its system southern crabgrass. Kind of experiment: Test Example 4: herbicidal effect by soil treatment (Table 19, symbol F). The experiment is classed as in vivo, southern crabgrass (Digitaria ciliaris). An outline of the steps:
(§3)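 Emulsion of test compound, water-diluted to predetermined amount, sprayed on soil after sowing (seed depth ~1.5 cm, sterilized diluvial soil). Greenhouse, 25–30° C. Effect graded at three weeks post-spray.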

The next experiment concerns Chinese sprangletop. Kind of experiment: Test Example 3: herbicidal effect by foliage application, Wagner pot (Table 18, symbol D). The experiment is classed as in vivo, chinese sprangletop (Leptochloa chinensis). An outline of the steps:
as §2

The next experiment concerns persian speedwell. Kind of experiment: Test Example 5: herbicidal effect by foliage application, plastic box (Table 20, symbol R). Format: in vivo, Persian speedwell (Veronica persica). To be noted: foliage application, three weeks after application. In outline:
as §1

The test system of experiment [5] is lambsquarters. Kind of experiment: Test Example 5: herbicidal effect by foliage application, plastic box (Table 20, symbol O). Format: in vivo, lambsquarters (Chenopodium album). To be noted: foliage application, three weeks after application. An outline of the steps:
as §1

Experiment [6] has as its system lambsquarters. As to the kind of experiment: Test Example 4: herbicidal effect by soil treatment (Table 19, symbol O). Format: in vivo, lambsquarters (Chenopodium album). In outline: as §3
Experiment [7] has as its system southern crabgrass. Kind of experiment: Test Example 5: herbicidal effect by foliage application, plastic box (Table 20, symbol F). The experiment is classed as in vivo, southern crabgrass (Digitaria ciliaris). To be noted: foliage application, three weeks after application. An outline of the steps:
as §1

The test system of experiment [8] is velvetleaf. As to the kind of experiment: Test Example 4: herbicidal effect by soil treatment (Table 19, symbol M). The experiment is classed as in vivo, velvetleaf (Abutilon theophrasti). In outline:
as §3

The next experiment deals with Italian ryegrass. As to the kind of experiment: Test Example 5: herbicidal effect by foliage application, plastic box (Table 20, symbol K). The experiment is classed as in vivo, Italian ryegrass (Lolium multiflorum). To be noted: foliage application, three weeks after application. An outline of the steps: as §1
Another experiment deals with late watergrass. As to the kind of experiment: Test Example 1: herbicidal activity, application before weed generation under submerged conditions (Table 16, symbol A). Format: in vivo, late watergrass (Echinochloa oryzicola). An outline of the steps: (§4)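 Submerged Wagner pots (alluvial soil, 4 cm water) sown with weed seeds and planted with 2.5-leaf rice seedlings; emulsifiable concentrate diluted in water applied to water surface on sowing day. Held in greenhouse at 25-30 °C; injury scored 0-5 by herbicidal rate after three weeks.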

The test system of experiment [9] is Japanese bulrush. Kind of experiment: Test Example 1: herbicidal activity, application before weed generation under submerged conditions (Table 16, symbol B). Format: in vivo, Japanese bulrush (Schoenoplectus juncoides). An outline of the steps: as §4
The test system of experiment [10] is barnyard grass. As to the kind of experiment: Test Example 4: herbicidal effect by soil treatment (Table 19, symbol H). Format: in vivo, barnyard grass (Echinochloa crus-galli). An outline of the steps:
as §3

In experiment [11] the test system is Japanese bulrush. Kind of experiment: Test Example 2: herbicidal activity, application during weed generation under submerged conditions (Table 17, symbol B). To be noted: application during weed generation, submerged conditions. Format: in vivo, Japanese bulrush (Schoenoplectus juncoides). In outline: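 In this pot test, flooded alluvial soil (water depth 4 cm) holds all three species sown as a mixture. Once seedlings have one to two leaves, the compound's emulsion, thinned with water to the intended dose, is poured on the water; grading follows after three weeks on the earlier criteria.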

For experiment [12], the system named is windgrass. Kind of experiment: Test Example 4: herbicidal effect by soil treatment (Table 19, symbol L). The experiment is classed as in vivo, windgrass (Apera spica-venti). In outline: as §3
The mark [13] stands for this setting: amount of applied herbicide 246 g/ha.
The mark [14] stands for this setting: amount of applied herbicide 320 g/ha.

On to `CCCC(=O)Oc1c(C)nn(C)c(=O)c1-c1c(-c2ccc(F)cc2OCC)oc2ccc(C)cc12` [9-010], for which the “herbicidal effect on windgrass (L)” value in the experiment on windgrass [1] (246 g/ha) is 0 (Herbicidal rate of 5% or less (almost no effect)). Also, the “herbicidal effect on velvetleaf (M)” value in the experiment with velvetleaf [2] (246 g/ha) is 4 (Herbicidal rate of 70% or more and less than 90%). Also, in the experiment on barnyard grass [3] (setting [13]), the “Herbicidal effect on H (barnyard grass), foliage application” value is 4 (Herbicidal rate of 70% or more and less than 90%). Besides, the “herbicidal effect on wild oat (I)” value with wild oat (246 g/ha) is 1 (Herbicidal rate of 5% or more and less than 20%). Besides, the “F: southern crabgrass, herbicidal effect grade” value in the experiment with southern crabgrass [4] (setting [13]) was 0 (Herbicidal rate of 5% or less (almost no effect)). In the experiment on Chinese sprangletop (setting [13]), the “Herbicidal effect on D (Chinese sprangletop), foliage application” value was 5 (Herbicidal rate of 90% or more (almost completely withered)). For the same compound, in the experiment on persian speedwell (246 g/ha), the “herbicidal effect on persian speedwell (R)” value was 3 (Herbicidal rate of 40% or more and less than 70%). Moreover, in the experiment with lambsquarters [5] (246 g/ha), the “herbicidal effect on lambsquarters (O)” value is 3 (Herbicidal rate of 40% or more and less than 70%). The “O: lambsquarters, herbicidal effect grade” value with lambsquarters [6] (setting [13]) is on record as 0 (Herbicidal rate of 5% or less (almost no effect)). Moreover, the “herbicidal effect on southern crabgrass (F)” value with southern crabgrass [7] (246 g/ha) was 3 (Herbicidal rate of 40% or more and less than 70%). Also, in the experiment with velvetleaf [8] (setting [13]), the “M: velvetleaf, herbicidal effect grade” value is 0 (Herbicidal rate of 5% or less (almost no effect)). In addition, in the experiment with Italian ryegrass (246 g/ha), the “herbicidal effect on Italian ryegrass (K)” value is listed as 0 (Herbicidal rate of 5% or less (almost no effect)). Also, in the experiment on late watergrass (setting [13]), the “Herbicidal effect, A: late watergrass” value is reported as 5 (Herbicidal rate of 90% or more (almost completely withered)). For the same compound, the “Herbicidal effect, B: Japanese bulrush” value in the experiment with Japanese bulrush [9] (setting [13]) was 3 (Herbicidal rate of 40% or more and less than 70%). Also, the “H: barnyard grass, herbicidal effect grade” value with barnyard grass [10] (setting [13]) is recorded as 0 (Herbicidal rate of 5% or less (almost no effect)). Moreover, the “herbicidal effect rating, B: Japanese bulrush” value in the experiment with Japanese bulrush [11] (AAH 246 g/ha) is recorded as 0 (Herbicidal rate of 5% or less (almost no effect)). The “L: windgrass, herbicidal effect grade” value with windgrass [12] (setting [13]) is on record as 0 (Herbicidal rate of 5% or less (almost no effect)).

As to `Cc1nn(C)c(=O)c(-c2c(-c3ccc(C#N)cc3)sc3ccccc23)c1O` [Compound No. 1-045, 5-hydroxy-2,6-dimethyl-4-(2-(4-cyanophenyl)benzo[b]thiophen-3-yl)pyridazin-3(2H)-one], in the experiment with windgrass [1] (320 g/ha), the “herbicidal effect grade, L: windgrass” value is recorded as 0 (Herbicidal rate of 5% or less (almost no effect)). Besides, the “herbicidal effect grade, M: velvetleaf” value in the experiment on velvetleaf [2] (320 g/ha) is listed as 5 (Herbicidal rate of 90% or more (almost completely withered)). Moreover, the “herbicidal effect on H (barnyard grass), rating 0-5” value with barnyard grass [3] (320 g/ha) is listed as 5 (Herbicidal rate of 90% or more (almost completely withered)). In the experiment on wild oat (320 g/ha), the “herbicidal effect grade, I: wild oat” value was 3 (Herbicidal rate of 40% or more and less than 70%). Further, the “herbicidal effect rating, F: southern crabgrass” value with southern crabgrass [4] (setting [14]) is 4 (Herbicidal rate of 70% or more and less than 90%). The “herbicidal effect on D (Chinese sprangletop), rating 0-5” value with Chinese sprangletop (320 g/ha) was 4 (Herbicidal rate of 70% or more and less than 90%). Besides, the “herbicidal effect grade, R: persian speedwell” value in the experiment with persian speedwell (320 g/ha) is reported as 5 (Herbicidal rate of 90% or more (almost completely withered)). Moreover, the “herbicidal effect grade, O: lambsquarters” value with lambsquarters [5] (320 g/ha) is recorded as 5 (Herbicidal rate of 90% or more (almost completely withered)). Besides, the “herbicidal effect rating, O: lambsquarters” value with lambsquarters [6] (setting [14]) is reported as 5 (Herbicidal rate of 90% or more (almost completely withered)). In addition, in the experiment with southern crabgrass [7] (320 g/ha), the “herbicidal effect grade, F: southern crabgrass” value was 3 (Herbicidal rate of 40% or more and less than 70%). Further, the “herbicidal effect rating, M: velvetleaf” value in the experiment on velvetleaf [8] (setting [14]) is listed as 5 (Herbicidal rate of 90% or more (almost completely withered)). Besides, the “herbicidal effect grade, K: Italian ryegrass” value with Italian ryegrass (320 g/ha) is on record as 5 (Herbicidal rate of 90% or more (almost completely withered)). The “Herbicidal effect on A: late watergrass (grade 0-5)” value with late watergrass (320 g/ha applied herbicide) is 1 (Herbicidal rate of 5% or more and less than 20%). Besides, the “Herbicidal effect on B: Japanese bulrush (grade 0-5)” value in the experiment on Japanese bulrush [9] (320 g/ha applied herbicide) was 4 (Herbicidal rate of 70% or more and less than 90%). In the experiment with barnyard grass [10] (setting [14]), the “herbicidal effect rating, H: barnyard grass” value is on record as 5 (Herbicidal rate of 90% or more (almost completely withered)). In addition, in the experiment with Japanese bulrush [11] (AAH 320 g/ha), the “herbicidal effect rating, B: Japanese bulrush” value is 3 (Herbicidal rate of 40% or more and less than 70%). Moreover, the “herbicidal effect rating, L: windgrass” value in the experiment on windgrass [12] (setting [14]) is given as 0 (Herbicidal rate of 5% or less (almost no effect)).
